Results from patent publication US10882837B2, “Amide compounds and use thereof” (ALPHALA CO., LTD., priority 2017, dated 2021).

Columns and labels:
[1] = target: T1, glucagon receptor (GCGR) (Homo sapiens, UniProt P47871); test: Glucagon cAMP inhibition assay (Cisbio cAMP Dynamic 2 HTRF); type: cell-based; conditions: GCGR overexpressed CHO-K1 cells or human primary hepatocytes (not specified); glucagon at EC50
T1 construct: expressed in transfected cells; host or cells: CHO-K1
Method: Glucagon eAMP Inhibition Assay
Downstream secondary messenger eAMP induced by glucagon was detected by Cisbio cAMP Dynamic 2 kit. Testing compounds were each prepared as a dimethyl sulfoxide (DMSO) solution at the concentration of 10 mM. To evaluate the potency of compounds in inhibiting the cAMP production, glucagon receptor (GCGR) overexpressed CHO-K1 cells or human primary hepatocytes were treated with compounds with a serial dilution. The cells were re-suspended in Hank's Balanced Salt solution (HBSS) contained 0.1% (w/v) bovine serum albumin and 800 nM 3-isobutyl-1-methylxanthine (IBMX) and seeded into low volume, 384 wells white plate. The diluted compounds were then added into the plate for 30 minutes pre-incubation where the final DMSO concentration was 1%. The cells were stimulated with glucagon at the concentration equaled to EC50 (an indicium of the concentration of a drag that gives half-maximal response) for 30 minutes at room temperature. After incubation, lysis buffer contain cAMP antibody and fluorescence acceptor were added into each well for additional 60 minutes incubation. Results were recorded by Molecular Devices SpectraMax Paradigm with the HTRF Detection Cartridges and the IC50 value of each compound in inhibiting the cAMP production was calculated with non-linear regression based on the amount of cAMP production.

[2] = target: GCGR (Homo sapiens, UniProt P47871); test: I125-glucagon binding assay (competition, GCGR membrane fractions); set-up: expressed in transfected cells; host or cells: CHO-K1; inhibition: dose or concentration left out as unconfirmed; conditions: for IC50: competition with I125-glucagon 0.0625 nM, membrane fractions from GCGR overexpressed CHO-K1 cells
Sequence of GCGR (P47871 26-477, species assumed): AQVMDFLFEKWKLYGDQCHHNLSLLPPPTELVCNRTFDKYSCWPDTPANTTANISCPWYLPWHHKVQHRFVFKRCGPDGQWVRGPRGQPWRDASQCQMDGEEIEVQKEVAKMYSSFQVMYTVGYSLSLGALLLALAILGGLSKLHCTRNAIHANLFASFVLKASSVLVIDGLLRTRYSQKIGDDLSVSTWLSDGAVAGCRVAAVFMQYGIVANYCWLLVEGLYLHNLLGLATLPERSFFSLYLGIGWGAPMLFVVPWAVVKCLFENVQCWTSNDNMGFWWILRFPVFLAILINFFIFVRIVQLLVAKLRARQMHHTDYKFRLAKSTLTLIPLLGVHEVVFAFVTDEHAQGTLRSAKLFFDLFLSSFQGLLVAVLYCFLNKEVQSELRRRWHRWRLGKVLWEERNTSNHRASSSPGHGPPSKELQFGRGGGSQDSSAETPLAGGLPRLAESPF
Method: I^125-Glucagon Binding Assay
The binding affinity of each compound was evaluated by a competition assay with I^125-glucagon. GCGR membrane fractions were obtained from GCGR overexpressed CHO-K1 cells as a stock of 1 mg/ml concentration. To evaluate the IC50 of compounds binding to GCGR, GCGR membrane fractions were treated with compounds with a serial dilution. The membrane fractions were diluted to 7.5 microgram per well in 70 microliter assay buffer contained 50 mM Tris pH 7.4 and 0.5% (w/v) bovine serum albumin and added into 96 wells plate. The membrane fractions were then mixed with 10 microliter diluted compounds. After 5 minutes pre-incubation, 20 microliter I^125 labeled glucagon (Perkin Elmer) was added into each well at the final concentration of 0.0625 nM. The assay mixtures were incubated at 25° C. for 30 minutes and then transferred onto the Millipore Multiscreen GF/B Plate coated with 0.5% (w/v) Polyethyleneimine. The filter plate was washed with wash buffer contained 50 mM Tris pH 7.4 for 2 times, 300 microliter each time. The residual isotope was detected by Hidex CHAMELEON V micro-beta counter and the IC50 value of each compound binding to GCGR was calculated with non-linear regression.

T1 sequence (P47871 26-477, species assumed): as above

| IC50 [1] | IC50 [2] | inhibition ([2]; read-out: percentage of inhibition (number in parenthesis in IC50 binding column)) | Compound |
| --- | --- | --- | --- |
| 1500 nM | 150 nM | – | CCCC[C@@H](Nc1ccc(C(=O)NCCC(=O)O)cc1)c1ccc(-c2nc3ccccc3o2)cc1 [Compound 4-10] |
| 1000 nM | 537 nM | – | CC(C)[C@@H](Nc1ccc(C(=O)NCCC(=O)O)cc1)c1ccc(-c2noc(-c3ccccc3)n2)cc1 [Compound 2-23, (R)-3-(4-((2-methyl-1-(4-(5-phenyl-1,2,4-oxadiazol-3-yl)phenyl)propyl)amino)benzamido)propanoic acid] |
| 97 nM | 204 nM | – | COC(=O)CCNC(=O)c1ccc(NC(c2ccc(-c3noc(-c4ccccc4)n3)cc2)C(C)C)cc1 (stereo not shown) [Compound 2-31, methyl 3-(4-((2-methyl-1-(4-(5-phenyl-1,2,4-oxadiazol-3-yl)phenyl)propyl)amino)benzamido)propanoate] |
| 126 nM | 3310 nM | – | CCOC(=O)CCNC(=O)c1ccc(NC(c2ccc(-c3nnc(C(C)(C)C)o3)cc2)C(C)CC)cc1 (stereo not shown) [Compound 1-21, Ethyl 3-(4-((1-(4-(5-(tert-butyl)-1,3,4-oxadiazol-2-yl)phenyl)-2-methylbutyl)amino)benzamido)propanoate] |
| 53.4 nM | 285 nM | – | CCOC(=O)CCNC(=O)c1ccc(N[C@H](c2ccc(-c3nc4ccccc4o3)cc2)C(C)C)nc1 [Compound 4-29, ethyl (S)-3-(6-((1-(4-(benzo[d]oxazol-2-methylpropyl)amino)nicotinamido propanoate] |
| 570 nM | 40 nM | – | CC(C)C(Nc1ccc(C(=O)NCCC(=O)O)cc1)c1ccc(-c2noc(-c3ccccc3)n2)cc1 (stereo not shown) [Compound 2-26, 3-(4-((2-methyl-1-(4-(5-phenyl-1,2,4-oxadiazol-3-yl)phenyl)propyl)amino)benzamido)propanoic acid] |
| 2900 nM | 17 nM | – | CC(C)C(Nc1ccc(-c2nnc(-c3ccccc3)o2)cc1)c1ccc(C(=O)NCCC(=O)O)cc1 (stereo not shown) [Compound 3-2, 3-(4-(2-methyl-1-((4-(5-phenyl-1,3,4-oxadiazol-2-yl)phenyl)amino)propyl)benzamido)propanoic acid] |
| 292 nM | 34.1 nM | – | CC(C)[C@H](Nc1ccc(C(=O)NCCC(=O)O)cc1)c1ccc(-c2nc(-c3ccccc3)no2)cc1 [Compound 5-4, (S)-3-(4-((2-methyl-1-(4-(3-phenyl-1,2,4-oxadiazol-5-yl)phenyl)propyl)amino)benzamido)propanoic acid] |
| 186 nM | 602 nM | – | CCCC[C@@H](Nc1ccc(C(=O)NCCC(=O)OCC)cc1)c1ccc(-c2nc3ccccc3o2)cc1 [Compound 4-9, ethyl (R)-3-(4-((1-(4-(benzo[d]oxazol-2-yl)phenyl)pentyl)amino)benzamido)propanoate] |
| 1080 nM | 372 nM | – | CC(C)[C@@H](Nc1ccc(C(=O)NCCC(=O)O)cc1)c1ccc(-c2nc3ccccc3o2)cc1 [Compound 4-8, (R)-3-(4-((1-(4-(benzo[d]oxazol-2-yl)phenyl)-2-methylpropyl)amino)benzamido)propanoic acid] |
| 651 nM | 20 nM | – | CC(C)[C@H](Nc1ccc(C(=O)NCCC(=O)O)cc1)c1ccc(-c2nc3ccccc3o2)cc1 [Compound 4-7, (S)-3-(4-((1-(4-(benzo[d]oxazol-2-yl)phenyl)-2-methylpropyl)amino)benzamido)propanoic acid] |
| 55.8 nM | 285 nM | – | COC(=O)CCNC(=O)c1ccc(N[C@H](c2ccc(-c3noc(-c4ccccc4)n3)cc2)C(C)C)cc1 [Compound 2-49, methyl (S)-3-(4-((2-methyl-1-(4-(5-phenyl-1,2,4-oxadiazol-3-yl)phenyl)propyl)amino)benzamido)propanoate] |

The remaining lines, values behind:

| Compound | IC50 [1] | IC50 [2] | inhibition ([2]; read-out: percentage of inhibition (number in parenthesis in IC50 binding column)) |
| --- | --- | --- | --- |
| CCCC[C@@H](Nc1ccc(C(=O)NCCC(=O)OCC)cc1)c1ccc(-c2noc(-c3ccccn3)n2)cc1 [Compound 2-39, ethyl (R)-3-(4-((1-(4-(5-(pyridin-2-yl)-1,2,4-oxadiazol-3-yl)phenyl)pentyl)amino)benzamido)propanoate] | 672 nM | > 30000 nM | – |
| CCOC(=O)CCNC(=O)c1ccc(NC(CC(C)C)c2ccc(-c3noc(C(C)(C)C)n3)cc2)cc1 (stereo not shown) [Compound 2-5, ethyl 3-(4-((1-(4-(5-(tert-butyl)-1,2,4-oxadiazol-3-yl)phenyl)-3-methylbutyl)amino)benzamido)propanoate] | 395 nM | 6250 nM | 63% |
| COc1ccc(-c2nnc(-c3ccc(C(Nc4ccc(C(=O)NCCC(=O)O)cc4)C(C)C)cc3)o2)cc1 (stereo not shown) [Compound 1-26, 3-(4-((1-(4-(5-(4-methoxyphenyl)-1,3,4-oxadiazol-2-yl)phenyl)-2-methylpropyl)amino)benzamido)propanoic acid] | 4380 nM | 198 nM | – |
| CCC(C)C(Nc1ccc(C(=O)NCCC(=O)O)cc1)c1ccc(-c2nnc(C(F)(F)F)o2)cc1 (stereo not shown) [Compound 1-32] | 3480 nM | 885 nM | – |
| CCC(C)[C@H](Nc1ccc(C(=O)NCCC(=O)O)cc1)c1ccc(-c2nnc(C(F)(F)F)o2)cc1 (stereo partly drawn) [Compound 1-36, 3-(4-(((1S)-2-methyl-1-(4-(5-(trifluoromethyl)-1,3,4-oxadiazol-2-yl)phenyl)butyl)amino)benzamido)propanoic acid] | 2040 nM | 359 nM | – |
| CCC(C)C(Nc1ccc(C(=O)NCCC(=O)O)cc1)c1ccc(-c2nnc(-c3ccc(F)cc3)o2)cc1 (stereo not shown) [Compound 1-30, 3-(4-((1-(4-(5-(4-fluorophenyl)-1,3,4-oxadiazol-2-yl)phenyl)-2-methylbutyl)amino)benzamido)propanoic acid] | 3410 nM | 347 nM | – |
| CCCC[C@H](Nc1ccc(C(=O)NCCC(=O)O)cc1)c1ccc(-c2nc(-c3ccccc3)no2)cc1 [Compound 5-8, (S)-3-(4-((1-(4-(3-phenyl-1,2,4-oxadiazol-5-yl)phenyl)pentyl)amino)benzamido)propanoic acid] | 202 nM | 14 nM | – |
| CC(C)C[C@H](Nc1ccc(C(=O)NCCC(=O)O)cc1)c1ccc(-c2nnc(-c3ccccc3)o2)cc1 [Compound 1-61, (S)-3-(4-((3-methyl-1-(4-(5-phenyl-1,3,4-oxadiazol-2-yl)phenyl)butyl)amino)benzamido)propanoic acid] | 3250 nM | 201 nM | – |
| CCCCC(Nc1ccc(C(=O)NCCC(=O)O)cc1)c1ccc(-c2nnc(C(F)(F)F)o2)cc1 (stereo not shown) [Compound 1-14, 3-(4-((1-(4-(5-(trifluoromethyl)-1,3,4-oxadiazol-2-yl)phenyl)pentyl)amino)benzamido)propanoic acid] | 3450 nM | 379 nM | – |
| CCCCC(Nc1ccc(-c2nnc(-c3ccccc3)o2)cc1)c1ccc(C(=O)NCCC(=O)O)cc1 (stereo not shown) [Compound 3-1, 3-(4-(1-((4-(5-phenyl-1,3,4-oxadiazol-2-yl)phenyl)amino)pentyl)benzamido)propanoic acid] | 1740 nM | 25 nM | – |
| CCCCC(Nc1ccc(C(=O)NCCC(=O)OCC)cc1)c1ccc(-c2noc(C(C)(C)C)n2)cc1 (stereo not shown) [Compound 2-3] | 225 nM | > 30000 nM | – |
| CC(C)C(Nc1ccc(C(=O)NCCC(=O)O)cc1)c1ccc(-c2noc(-c3cccs3)n2)cc1 (stereo not shown) [Compound 2-12, 3-(4-((2-methyl-1-(4-(5-(thiophen-2-yl)-1,2,4-oxadiazol-3-yl)phenyl)propyl)amino)benzamido)propanoic acid] | 504 nM | 354 nM | – |
| CCC(C)C(Nc1ccc(-c2nnc(-c3ccccc3)o2)cc1)c1ccc(C(=O)NCCC(=O)O)cc1 (stereo not shown) [Compound 3-6, 3-(4-(2-methyl-1-((4-(5-phenyl-1,3,4-oxadiazol-2-yl)phenyl)amino)butyl)benzamido)propanoic acid] | 650 nM | 58 nM | – |
| CCCC[C@H](Nc1ccc(C(=O)NCCC(=O)OCC)cc1)c1ccc(-c2noc(-c3ccccc3)n2)cc1 [Compound 2-33, ethyl (S)-3-(4-((1-(4-(5-phenyl-1,2,4-oxadiazol-3-yl)phenyl)pentyl)amino)benzamido)propanoate] | 283 nM | 1040 nM | – |
| CCCC[C@H](Nc1ccc(C(=O)NCCC(=O)OCC)cc1)c1ccc(-c2nnc(C(F)(F)F)o2)cc1 [Compound 1-51, ethyl (S)-3-(4-((1-(4-(5-(trifluoromethyl)-1,3,4-oxadiazol-2-yl)phenyl)pentyl)amino)benzamido)propanoate] | 33.9 nM | 6170 nM | – |
